Reference: paper PMC4359537, “Pharmacological characterisation of murine α4β1δ GABAA receptors expressed in Xenopus oocytes” (BMC Neuroscience, 2015)
Where “and” joins values, the source holds several entries; their conditions need not be identical. Identical values can stand only once. Entries after “also recorded” stand apart in the source; their conditions may differ. Like-named read-outs stand apart in the source and are kept apart here.

What was measured:
α4β1δ receptors = biological target: T1, α4β1δ receptors (UniProt P18506+P50571+Q9D6F4); experiment: Two-electrode voltage-clamp of murine α4β1δ GABAA receptors expressed in Xenopus oocytes; format: cell-based, mouse
T1 construct: expressed in transfected cells; host or cells: Xenopus laevis oocytes, cDNA-injected (pRK5 vector), ratio 1:1:5
Description: (§1) Oocytes from Xenopus laevis toads were prepared as described. […] To obtain free oocytes, ovarian lobes were cut into pieces and incubated in OR2 (85 mM NaCl, 5 mM HEPES, 1 mM MgCl2, pH adjusted to 7.6 with KOH) supplemented with 2-2.5 mg/mL collagenase type 1 (Lorne Laboratories, Danehill, UK) for 3-4 hrs. Oocytes were washed several times in OR2 and subsequently in Barth’s solution (88 mM NaCl, 1 mM KCl, 0.33 mM Ca(NO3)2, 0.41 mM CaCl2, 0.82 mM MgSO4, 2.4 mM NaHCO3, 10 mM HEPES, pH adjusted to 7.6 with NaOH) to isolate cells and remove follicular membranes. After preparation, the oocytes were injected with 27 or 55 nL of 30 ng/μL cDNA in a ratio of 1:1 (α4β1) or 1:1:5 (α4β1δ). Oocytes were subsequently maintained at 18°C in Barth’s solution supplemented with gentamycin (Invitrogen, Paisley, UK).
(§2) Electrodes were filled with 3 M KCl and had resistances of 0.5 to 3 MΩ. The oocytes were clamped at a holding potential of -60 mV and were perfused with buffer (100 mM NaCl, 2 mM KCl, 2 mM CaCl2, 1 mM MgCl2, 5 mM HEPES, pH adjusted to 7.4 with NaOH) throughout the recordings. All currents were adjusted when necessary for voltage drop using equation 1:1 I=Imeasured⋅Vh−Vrev/Vh−Vrev+ΔV
(§3) Drugs were applied using a fast application system coupled to a small bath volume ([…]), enabling drug onset times of ~ 10 ms.
(§4) For each co-application, the peak-response was measured. […] All monophasic inhibition-curves were fitted to a modified version of equation 2.
Normalized responses were pooled and plotted as mean ± SEM from at least four different oocytes taken from at least two different Xenopus toads. For statistical evaluation, a repeated measures ANOVA with Dunnett’s post test was used. The significance level was set at *P < 0.05, **P < 0.01, ***P < 0.001. For inhibition curves, an F-test was performed to determine whether the data was either monophasic or biphasic.

α4β1 receptors = biological target: T2, α4β1 receptors (Mus musculus, UniProt P50571+Q9D6F4); experiment: Two-electrode voltage-clamp of murine α4β1 GABAA receptors expressed in Xenopus oocytes; format: cell-based; conditions: for EC50: GABA-activated peak currents, oocytes clamped at -60 mV
T2 construct: expressed in transfected cells; host or cells: Xenopus laevis oocytes, cDNA-injected (pRK5 vector), ratio 1:1
Description: as §1, §2, §3, §4

α2β1γ2 receptors = conditions: Xenopus oocytes; cited from earlier work
α1β2γ2 receptors = conditions: steady-state GABA responses, HEK293 cells; cited from earlier work
α6β3δ receptors = conditions: cited from earlier work
[1] = inhibition of peak response to GABA EC75 (3 μM), 1 min pre-incubation
[2] = GABA EC75 (8 μM), biphasic inhibition
[3] = inhibition of peak response to GABA EC20 after pre-application
[4] = Hill coefficient of GABA concentration response curve
[5] = depending upon expression levels
[6] = inhibition of steady-state (desensitized) response after 70 s co-application with GABA EC75 (3 μM)

T2 sequence (Q9D6F4 36-552): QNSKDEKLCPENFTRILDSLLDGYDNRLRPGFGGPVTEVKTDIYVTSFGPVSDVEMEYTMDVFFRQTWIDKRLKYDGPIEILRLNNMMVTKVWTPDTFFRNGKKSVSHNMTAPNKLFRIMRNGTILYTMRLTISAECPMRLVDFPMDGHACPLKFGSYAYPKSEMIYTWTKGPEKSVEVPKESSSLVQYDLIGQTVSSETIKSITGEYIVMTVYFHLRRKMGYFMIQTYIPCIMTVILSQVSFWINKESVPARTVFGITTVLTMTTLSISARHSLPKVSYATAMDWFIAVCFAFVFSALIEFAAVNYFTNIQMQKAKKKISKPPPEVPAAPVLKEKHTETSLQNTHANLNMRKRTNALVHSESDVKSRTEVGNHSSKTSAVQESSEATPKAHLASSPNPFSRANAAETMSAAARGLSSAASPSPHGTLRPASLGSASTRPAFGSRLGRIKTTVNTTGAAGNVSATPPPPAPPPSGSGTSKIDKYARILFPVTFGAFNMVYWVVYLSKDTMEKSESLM
T2 sequence (P50571 26-474): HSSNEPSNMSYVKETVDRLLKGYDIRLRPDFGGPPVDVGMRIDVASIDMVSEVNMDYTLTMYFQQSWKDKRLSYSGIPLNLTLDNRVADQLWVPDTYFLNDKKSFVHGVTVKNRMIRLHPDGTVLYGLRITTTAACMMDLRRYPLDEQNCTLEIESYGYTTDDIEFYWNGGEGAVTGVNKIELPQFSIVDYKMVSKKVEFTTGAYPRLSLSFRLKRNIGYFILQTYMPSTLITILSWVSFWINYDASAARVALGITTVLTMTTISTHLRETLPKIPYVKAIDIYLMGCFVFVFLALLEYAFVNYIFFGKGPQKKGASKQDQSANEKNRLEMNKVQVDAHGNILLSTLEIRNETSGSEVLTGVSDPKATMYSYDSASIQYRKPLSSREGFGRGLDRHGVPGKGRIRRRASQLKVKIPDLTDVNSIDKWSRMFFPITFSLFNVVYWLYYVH
T1 sequence (Q9D6F4 36-552): as the sequence (Q9D6F4 36-552) above
T1 sequence (P50571 26-474): as the sequence (P50571 26-474) above
T1 sequence (P18506 17-449 limits assumed): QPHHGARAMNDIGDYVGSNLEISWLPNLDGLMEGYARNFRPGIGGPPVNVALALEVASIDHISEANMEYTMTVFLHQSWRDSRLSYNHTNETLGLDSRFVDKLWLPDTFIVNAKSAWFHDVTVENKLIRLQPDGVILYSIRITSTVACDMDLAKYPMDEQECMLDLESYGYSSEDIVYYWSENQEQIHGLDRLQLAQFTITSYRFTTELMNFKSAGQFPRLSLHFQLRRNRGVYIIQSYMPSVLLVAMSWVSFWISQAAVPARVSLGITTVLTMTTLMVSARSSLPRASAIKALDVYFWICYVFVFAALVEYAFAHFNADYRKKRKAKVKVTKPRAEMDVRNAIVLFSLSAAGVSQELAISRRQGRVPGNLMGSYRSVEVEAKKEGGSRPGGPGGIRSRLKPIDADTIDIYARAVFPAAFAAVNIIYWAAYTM

[Cl-].[Cl-].[Zn+2] [Zn^2+]
nH (± SEM) (α4β1δ receptors; Hill slope of inhibition curve, peak response, GABA EC75): −0.75 ± 0.041
potency shift in IC50 values, α4β1δ versus α4β1 (α4β1δ receptors; from low micromolar to mid nanomolar): approximately 60 fold
IC50 (α4β1δ receptors; [1]): 3300 nM
pIC50 ± SEM (α4β1δ receptors; [1]): 5.48 ± 0.03
share of the total inhibition, high potency component (IC50A) (α4β1 receptors; [2]): ~ 25%
share of the total inhibition, lower potency component (IC50B) (α4β1 receptors; [2]): ~ 75%
pIC50A ± SEM (α4β1 receptors; GABA EC75 (8 μM), high potency component of two-site fit): 9.87 ± 0.22
IC50 (α4β1 receptors; GABA EC75 (8 μM), high potency component of two-site fit, read-out: IC50A): 0.13 nM
pIC50B ± SEM (α4β1 receptors; GABA EC75 (8 μM), lower potency component of two-site fit): 7.25 ± 0.13
IC50 (α4β1 receptors; GABA EC75 (8 μM), lower potency component of two-site fit, read-out: IC50B): 56 nM
nH (± SEM) (α4β1 receptors; Hill slope of IC50B component, GABA EC75): -1.1 ± 0.13

C[C@]12CC[C@@H](O)C[C@H]1CC[C@@H]1[C@@H]2CC[C@]2(C)[C@@H](C(=O)CO)CC[C@@H]12 [THDOC, tetrahydro-deoxycorticosterone]
potentiation of GABA peak-response (α4β1δ receptors; THDOC 30 and 100 nM co-applied with GABA EC7, P < 0.05): significantly increased; also recorded: significant increase; also recorded: able to potentiate

O=C(N/N=C/c1ccccc1O)c1ccccc1O [SCS, salicylidine salicylhydrazide]
steady-state level of inhibition (α4β1δ receptors; GABA EC20, incomplete inhibition of the GABA current): 67.2 ± 3.2 % of control
IC50 (α4β1δ receptors; [3]): 4.2 nM
pIC50 ± SEM (α4β1δ receptors; [3]): 8.37 ± 0.25
IC50 (α2β1γ2 receptors): 4.36 nM
maximum inhibition (α2β1γ2 receptors): ~ 33%

NCCCC(=O)O [GABA, γ-Aminobutyric acid]
nH (± SEM) (α4β1δ receptors; [4]): 1.1 and 1.1 ± 0.11
maximal currents to GABA (α4β1δ receptors; [5]): 300 to 3000 nA
EC50 (α4β1 receptors; read-out: EC50): 2700 nM
EC50 (α4β1 receptors; read-out: pEC50 ± SEM (converted)): 2750 nM
nH (± SEM) (α4β1 receptors; [4]): 0.87 and 0.87 ± 0.079
maximal currents to GABA (α4β1 receptors; [5]): 100 to 3000 nA

[Cl][Cu][Cl] [Cu^2+]
nH (± SEM) (α4β1δ receptors; Hill slope of inhibition curve, steady-state response, GABA EC75): −1.2 ± 0.13
maximal inhibition of desensitized GABA responses (α4β1δ receptors; at 10 μM, GABA EC75, oocytes): 98 % inhibition
IC50 (α4β1δ receptors; [6]): 820 nM
pIC50 ± SEM (α4β1δ receptors; [6]): 6.09 ± 0.04
IC50 (α1β2γ2 receptors): 85000 nM
maximal inhibition of the steady-state response (α6β3δ receptors; HEK293): ~ 68%
IC50 (α6β3δ receptors; steady-state GABA responses, HEK293 cells): 65 nM
